# Measured values as given in the supplement of paper PMC10307832.
# Columns and labels:
# Assay in all cases: relative viability (nuclei count vs DMSO), 5 days (fraction); higher = more cells survive
# [1] = test system: LOU-NH91
# In short: (§1)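 Lung cancer cell lines were pin-tool dosed in 1536-well plates on the day after seeding, with either a lone drug or a fixed anchor-drug dose plus five library-drug doses (not always all listed) in √10 steps. Nuclei were counted on 4× images after 5 days. Relative viability is the ratio of treated-well to vehicle-well nuclei counts, with each value a median of duplicate plates.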
# [2] = test system: NCI-H1975
# In short: as §1
# [3] = test system: NCI-H1666
# In short: as §1
# [4] = test system: HCC-827
# In short: as §1
# [5] = test system: NCI-H23
# In short: as §1
# [6] = test system: NCI-H1563
# In short: as §1
# [7] = test system: NCI-H3122
# In short: as §1
# [8] = test system: LXF-289
# In short: as §1
# [9] = test system: NCI-H2405
# In short: as §1
# [10] = test system: EPLC-272H
# In short: as §1
# [11] = test system: NCI-H2085
# In short: as §1
# [12] = test system: HCC-44
# In short: as §1
# [13] = test system: LK-2
# In short: as §1
# [14] = test system: SW 1573
# In short: as §1
# [15] = test system: EMC-BAC-2
# In short: as §1
# [16] = test system: HCC-366
# In short: as §1
# [17] = test system: HCC-78
# In short: as §1
# [18] = test system: SK-LU-1
# In short: as §1
# [19] = test system: LU99A
# In short: as §1
# [20] = test system: RERF-LC-KJ
# In short: as §1
# [21] = test system: NCI-H2126
# In short: as §1
smiles,measurement,setting,value
Clc1ccc(Nc2nnc(Cc3ccncc3)c3ccccc23)cc1 [Vatalanib] + CS(=O)(=O)CCNCc1ccc(-c2ccc3ncnc(Nc4ccc(OCc5cccc(F)c5)c(Cl)c4)c3c2)o1 [Lapatinib] (partner 2 µM),relative viability,[1]; first compound 0.04 µM,0.763
same,relative viability,[1]; first compound 0.1265 µM,0.741
same,relative viability,[1]; first compound 0.4 µM,0.802
same,relative viability,[1]; first compound 1.265 µM,0.689
same,relative viability,[1]; first compound 4 µM,0.664
same,relative viability,[2]; first compound 0.04 µM,0.856
same,relative viability,[2]; first compound 0.1265 µM,0.827
same,relative viability,[2]; first compound 0.4 µM,0.942
same,relative viability,[2]; first compound 1.265 µM,0.808
same,relative viability,[2]; first compound 4 µM,0.769
same,relative viability,[3]; first compound 0.04 µM,0.728
same,relative viability,[3]; first compound 0.1265 µM,0.749
same,relative viability,[3]; first compound 0.4 µM,0.863
same,relative viability,[3]; first compound 1.265 µM,0.529
same,relative viability,[3]; first compound 4 µM,0.545
same,relative viability,[4]; first compound 0.04 µM,0.19
same,relative viability,[4]; first compound 0.1265 µM,0.174
same,relative viability,[4]; first compound 0.4 µM,0.182
same,relative viability,[4]; first compound 1.265 µM,0.165
same,relative viability,[4]; first compound 4 µM,0.188
same,relative viability,[5]; first compound 0.04 µM,0.963
same,relative viability,[5]; first compound 0.1265 µM,1.15
same,relative viability,[5]; first compound 0.4 µM,1.3
same,relative viability,[5]; first compound 1.265 µM,0.993
same,relative viability,[5]; first compound 4 µM,1.08
same,relative viability,[6]; first compound 0.04 µM,0.994
same,relative viability,[6]; first compound 0.1265 µM,0.91
same,relative viability,[6]; first compound 0.4 µM,1.12
same,relative viability,[6]; first compound 1.265 µM,0.945
same,relative viability,[6]; first compound 4 µM,0.777
same,relative viability,[7]; first compound 0.04 µM,1.01
same,relative viability,[7]; first compound 0.1265 µM,1.01
same,relative viability,[7]; first compound 0.4 µM,1.01
same,relative viability,[7]; first compound 1.265 µM,0.977
same,relative viability,[7]; first compound 4 µM,0.97
same,relative viability,[8]; first compound 0.04 µM,0.959
same,relative viability,[8]; first compound 0.1265 µM,0.82
same,relative viability,[8]; first compound 0.4 µM,0.98
same,relative viability,[8]; first compound 1.265 µM,0.891
same,relative viability,[8]; first compound 4 µM,0.904
same,relative viability,[9]; first compound 0.04 µM,1.04
same,relative viability,[9]; first compound 0.1265 µM,0.984
same,relative viability,[9]; first compound 1.265 µM,0.923
same,relative viability,[9]; first compound 4 µM,1.05
same,relative viability,[10]; first compound 0.04 µM,0.931
same,relative viability,[10]; first compound 0.1265 µM,0.9
same,relative viability,[10]; first compound 0.4 µM,0.23
same,relative viability,[10]; first compound 1.265 µM,0.985
same,relative viability,[10]; first compound 4 µM,1.01
same,relative viability,[11]; first compound 0.04 µM,0.818
same,relative viability,[11]; first compound 0.1265 µM,0.736
same,relative viability,[11]; first compound 0.4 µM,0.891
same,relative viability,[11]; first compound 1.265 µM,0.701
same,relative viability,[11]; first compound 4 µM,0.723
same,relative viability,[12]; first compound 0.04 µM,1.01
same,relative viability,[12]; first compound 0.1265 µM,0.941
same,relative viability,[12]; first compound 0.4 µM,1.02
same,relative viability,[12]; first compound 1.265 µM,0.986
same,relative viability,[12]; first compound 4 µM,0.986
same,relative viability,[13]; first compound 0.04 µM,0.88
same,relative viability,[13]; first compound 0.1265 µM,0.831
same,relative viability,[13]; first compound 0.4 µM,0.698
same,relative viability,[13]; first compound 1.265 µM,1.03
same,relative viability,[13]; first compound 4 µM,0.93
same,relative viability,[14]; first compound 0.04 µM,1.29
same,relative viability,[14]; first compound 0.1265 µM,0.942
same,relative viability,[14]; first compound 0.4 µM,1.23
same,relative viability,[14]; first compound 1.265 µM,1.04
same,relative viability,[14]; first compound 4 µM,1.05
same,relative viability,[15]; first compound 0.04 µM,0.905
same,relative viability,[15]; first compound 0.1265 µM,0.884
same,relative viability,[15]; first compound 0.4 µM,0.919
same,relative viability,[15]; first compound 1.265 µM,0.832
same,relative viability,[15]; first compound 4 µM,0.885
same,relative viability,[16]; first compound 0.04 µM,1.02
same,relative viability,[16]; first compound 0.1265 µM,0.93
same,relative viability,[16]; first compound 0.4 µM,1.06
same,relative viability,[16]; first compound 1.265 µM,0.937
same,relative viability,[16]; first compound 4 µM,1.03
same,relative viability,[17]; first compound 0.04 µM,0.694
same,relative viability,[17]; first compound 0.1265 µM,0.634
same,relative viability,[17]; first compound 0.4 µM,0.937
same,relative viability,[17]; first compound 4 µM,0.478
same,relative viability,[18]; first compound 0.04 µM,0.963
same,relative viability,[18]; first compound 0.1265 µM,0.875
same,relative viability,[18]; first compound 0.4 µM,1.21
same,relative viability,[18]; first compound 1.265 µM,0.885
same,relative viability,[18]; first compound 4 µM,0.848
same,relative viability,[19]; first compound 0.04 µM,0.893
same,relative viability,[19]; first compound 0.1265 µM,0.986
same,relative viability,[19]; first compound 0.4 µM,1.16
same,relative viability,[19]; first compound 1.265 µM,0.831
same,relative viability,[19]; first compound 4 µM,0.92
same,relative viability,[20]; first compound 0.04 µM,0.812
same,relative viability,[20]; first compound 0.1265 µM,0.842
same,relative viability,[20]; first compound 0.4 µM,0.854
same,relative viability,[20]; first compound 1.265 µM,0.775
same,relative viability,[20]; first compound 4 µM,0.698
same,relative viability,[21]; first compound 0.04 µM,0.787
same,relative viability,[21]; first compound 0.1265 µM,0.823
same,relative viability,[21]; first compound 0.4 µM,0.773
same,relative viability,[21]; first compound 1.265 µM,0.744
same,relative viability,[21]; first compound 4 µM,0.71
